Entries after “also recorded” stand apart in the source; their conditions may differ.

These results are taken from patent publication US10246498B2, “Genetically encoded histone reporter allele constructs” (THE JOHNS HOPKINS UNIVERSITY, priority 2014, dated 2019).

The test system of one assay is H3K4me3 in the GCL. The experiment in a line: Immunofluorescence of H3K4me3 in dentate gyrus GCL after oral AR-42. It is filed as in vivo, mouse. The source says: (§1) Kmt2d^+/βGeo mice, also named Mll2Gt^(RRt024)Byg, were acquired from Bay Genomics (University of California). All experimental mice were on a mixed C57BL/6J and 129/SvEv background. Expected Mendelian ratios were observed when heterozygous animals were bred to wild-type. In heterozygous crosses, however, there was uniform embryonic lethality of homozygotes by ED12, the earliest developmental stage assayed. For treatment with AR-42, mice were orally gavaged daily with drug (Selleck Chemicals, Houston, Tex.) solubilized in vehicle (0.5% methylcellulose, 0.1% Tween-80, water) or with vehicle alone. Drug delivery information was kindly provided by Drs. […] For quantification of DCX positive cells, doses of 0, 5, 10 and 25 mg/kg/day were used. […] Maxillary protrusion was evaluated by ten investigators blinded to genotype and they were asked to rate maxillary protrusion on radiographs as either large (2) or small (1). […]
Z-stack images of slides were taken at either 10× using Zeiss Axiovert 200 with 510-Meta confocal module (Carl Zeiss, Jena, GER) or 25× using Zeiss AxioExaminer with 710NLO-Meta multiphoton (Carl Zeiss, Jena, GER). From 10× pictures, the GCL was highlighted and fluorescent intensities for both DAPI and H3K4me3 were measured at the midpoint of the entire z-stack (Zen software, Carl Zeiss, Jena, GER) with the value for Kmt2d^+/+ animals set equal to one. […]

In assay [1] the test system is Kmt2d+/βGeo mouse model of Kabuki syndrome. The experiment in a line: Morris water maze. Format: in vivo. The conditions noted are these: 10 mg/kg/day.
Source text: as §1
Mice were placed in a 1.1 meter diameter tank filled with room temperature water dyed with non-toxic white paint. […] Latency to reach the platform was measured during each trial. […] Average number of crossings of the platform's previous location was recorded. […] For all training and probe testing, data was recorded both manually and electronically with ANY-maze software (San Diego Instruments, San Diego, Calif.) when applicable. […]

Regarding `CC(C)[C@H](C(=O)Nc1ccc(C(=O)NO)cc1)c1ccccc1` [AR-42], the “H3K4me3 in the GCL” value was “increased H3K4 trimethylation; also recorded: increased H3K4me3” with H3K4me3 in the GCL (25 mg/kg/day, oral, two weeks); “dose-dependent increase in H3K4me3” in the assay with H3K4me3 in the GCL (5 and 10 mg/kg/day, both genotypes). For the same compound, the “frequency of platform crossing, probe trial” value in assay [1] is listed as “improved performance; also recorded: normalized”. The “escape latency during training, with versus without drug” value in assay [1] (Kmt2d+/βGeo animals) is recorded as “No significant difference”.
